Where two headings read alike, the source gives them in different places.
How the values were obtained:
[1] = test system: LNCaP cells; assay: DNA damage, apoptosis and cell cycle proteins by immunoblot, LNCaP; assay type: cell-based, Human
Experimental: Fluorescence-activated cell sorting (FACS) analysis was performed on both PC-3 cells and LNCaP cells using PCNA-I1. Specifically, cells were treated with 1 or 10 μM PCNA-I1 and sampled for the flow cytometry analysis at 24 H, 48 H, and 72 H. Expression of DNA damage and apoptosis-related proteins in PC-3 cells and LNCaP cells was also determined. Cisplatin, a well-known drug that induces DNA damage and apoptosis, was included in the experiment. LNCaP cells were treated for 6 H, 12 H, or 18 H with 10 μM PCNA-I1, 10 μM cisplatin, or both.
To further explore the differential effects of PCNA-I1 on LNCaP and PC-3 cells, the effects of PCNA-I1 and cisplatin on expression of cell cycle- and apoptosis-related proteins in the two cell lines were compared. LNCaP cells and PC-3 cells were treated with 1 μM PCNA-I1 and/or 5 μM cisplatin for 12 H, 18 H, or 24 H and cell lysates were sampled for immunoblotting.

[2] = test system: LNCaP cells; assay: MTT assay, PCNA-I1 and cisplatin alone or combined, LNCaP; assay type: cell-based, Human
Experimental: (§1) LNCaP or PC-3 cells were treated with a variety of concentrations of PCNA-I1 (0.1-10 μM) or cisplatin (0.1-10 μM) alone, or with a variety of concentrations of a combination of PCNA-I1 (0.1-10 μM) and cisplatin (0.1-10 μM) for four days. MTT assays were performed and IC50 values for PCNA-I1 and cisplatin were determined.

[3] = test system: PC-3 cells; assay: MTT assay, PCNA-I1 and cisplatin alone or combined, PC-3; assay type: cell-based, Human
Experimental: as §1

[4] = test system: PC-3 prostate cancer cells; assay: Growth inhibition by MTT staining, PC-3; assay type: cell-based, Human; details: MTT
Experimental: (§2) Growth inhibitory effects of PCNA-I1 and PCNA-I2 were assessed in human cancer cell lines, mouse cancer cell lines, immortalized mouse cell lines, and human primary cell lines. Specifically, growth inhibitory effects of PCNA-I1 and PCNA-I2 were assessed using MTT staining in the following cells lines: 1) human cancer cell lines including LNCaP (androgen receptor […]), 22Rv1, DU-145, LAPC-4, and PC-3 (androgen receptor […]) prostate cancer cells; MCF-7 and T47D breast cancer cells; A375 and MDA-MB435 melanoma cells; 2) mouse cancer cell lines including TRAMP-C2RE3 prostate cancer cells, B16 and K1735 melanoma cells, UV2237 fibrosarcoma cells, and CT-26 colon cancer cells; 3) immortalized mouse lung cell lines and mouse endothelial cell lines; and 4) primary human cell lines including umbilical endothelial cells (HUVEC, PromoCell, Heidelberg, Germany), primary bone marrow mesenchymal stem cells (HuMSC, PromoCell), primary human mammary epithelial cells (HuBrEC, Lonza, Walkersville, Md.), primary human prostate epithelial cells (HuPrEC, Lonza), and primary mouse spleen lymphocytes (isolated in this laboratory), and primary mouse bone marrow stromal cells (isolated in this laboratory). PCNA-I1 and PCNA-I2 were either provided by the University of Cincinnati Drug Discovery Center (UC-DDC, Cincinnati, Ohio) or were purchased from Chembridge Co (San Diego, Calif.), ChemDiv (San Diego, Calif.), and/or Sigma-Aldrich (St Louis, Mo.).
(§3) Growth inhibitory effects of the compounds were assessed by MTT staining as described previously by Dong et al. in In Vitro Model for Intrinsic Drug Resistance: Effects of Protein Kinase C Activators on the Chemosensitivity of Cultured Human Colon Cancer Cells; Mol. Pharmacol. 1991; 39: 563-9. Briefly, cells were cultured and treated in their respective media. Cells were plated into 96-well plates at 1000 to 5000 cells/well. After an overnight incubation, the cells were treated for four days with various concentrations (up to 10 μM) of PCNA-I1 or PCNA-I2. The live cells were stained with MTT and cells in exponential growth phase were harvested by a one to three minute treatment with a 0.25% trypsin-0.02% EDTA solution. Flasks were tapped to detach the cells, RPMI 1640-10% FBS was added, and the cell suspensions were gently agitated to produce single-cell suspensions. The cell suspensions were washed and resuspended in medium with supplements specified for different cells. Only suspensions of single cells with a viability exceeding 95% (ascertained by trypan blue exclusion) were used.
(§4) IC50 values were derived from growth inhibition curves. Data for tumor cells are a mean of five to seven experiments. Data for primary cells are a mean of three experiments. […] Inhibition of cell growth was calculated using the formula: growth inhibition (%)=(1−A570 of treated/A570 of control)×100. IC50 (the concentration that inhibited cell growth by 50%) values were also determined. For evaluation of lymphocyte growth in suspension, an Alamar blue assay was performed, wherein freshly prepared mouse spleen lymphocytes were stimulated for 72 H with 2 ug/mL concanavalin A (Sigma Chemicals, St. Louis, […].). During the last 24 H, 20 μl/well of Alamar blue (Invitrogen, Carlsbad, Calif.) was added. The fluorescence intensity was measured at 530/580 (excitation/emission) in the FLUOstar Omega microplate reader (BMG LABTECH, Cary, N.C.).
(§5) Growth inhibitory effects of PCNA-I3, PCNA-I4, PCNA-I6, PCNA-I7, PCNA-I8, PCNA-I9 and PCNA-I10 were assessed in human prostate cancer cell lines. Specifically, growth inhibitory effects of PCNA-I3, PCNA-I4, PCNA-I6, PCNA-I7, PCNA-I8, PCNA-I9 and PCNA-I10 were assessed using MTT staining in LNCaP and PC-3 cells. […]

[5] = test system: LNCaP prostate cancer cells; assay: Growth inhibition by MTT staining, LNCaP; assay type: cell-based, Human; details: 96 h
Experimental: as §2, §3, §4, §5

[6] = test system: primary mouse spleen lymphocytes; assay: Alamar blue assay of lymphocyte growth; assay type: cell-based; details: 2 μg/mL, 72 H; FIG. 2(A)
Experimental: as §4
The effects of PCNA-I1 on growth of tumor cells versus primary cells was also investigated. Specifically, the effects of PCNA-1I on the growth of primary cells was investigated using primary culture of mouse lymphocytes. An Alamar blue assay was performed with PC-3 cells as a positive control. Freshly prepared mouse spleen lymphocytes were stimulated for 72 H with 2 μg/mL of concanavalin A. During the last 24 H, 20 μL/well of alamar blue was added. The fluorescence intensity was measured at 530/580 (excitation/emission).

[7] = test system: MCF-7 breast cancer cells; assay: Growth inhibition by MTT staining, MCF-7; assay type: cell-based; details: MCF7, 96 h, Human, tumor cells, treated four days
Experimental: as §2, with “PCNA-I1 and PCNA-I2 were either provided by the University of Cincinnati Drug Discovery Center (UC-DDC, Cincinnati, Ohio) or were purchased from Chembridge Co (San Diego, Calif.), ChemDiv (San Diego, Calif.), and/or Sigma-Aldrich (St Louis, Mo.).” left out
(§6) IC50 values were derived from growth inhibition curves. […] Inhibition of cell growth was calculated using the formula: growth inhibition (%)=(1−A570 of treated/A570 of control)×100. […]

[8] = test system: DU145 prostate cancer cells; assay: Growth inhibition by MTT staining, DU145; assay type: cell-based; details: DU-145, 96 h, Human tumor cells, treated four days
Experimental: as §2, with “PCNA-I1 and PCNA-I2 were either provided by the University of Cincinnati Drug Discovery Center (UC-DDC, Cincinnati, Ohio) or were purchased from Chembridge Co (San Diego, Calif.), ChemDiv (San Diego, Calif.), and/or Sigma-Aldrich (St Louis, Mo.).” left out
as §6

[9] = test system: LAPC-4 prostate cancer cells; assay: Growth inhibition by MTT staining, LAPC-4; assay type: cell-based; details: LAPC4, 96 h, Human tumor cells, treated four days
Experimental: as §2, with “PCNA-I1 and PCNA-I2 were either provided by the University of Cincinnati Drug Discovery Center (UC-DDC, Cincinnati, Ohio) or were purchased from Chembridge Co (San Diego, Calif.), ChemDiv (San Diego, Calif.), and/or Sigma-Aldrich (St Louis, Mo.).” left out
as §6

[10] = test system: A375 melanoma cells; assay: Growth inhibition by MTT staining, A375; assay type: cell-based; details: A-375, 96 h, Human, treated four days
Experimental: as §2, with “PCNA-I1 and PCNA-I2 were either provided by the University of Cincinnati Drug Discovery Center (UC-DDC, Cincinnati, Ohio) or were purchased from Chembridge Co (San Diego, Calif.), ChemDiv (San Diego, Calif.), and/or Sigma-Aldrich (St Louis, Mo.).” left out
as §6

[11] = test system: Tumor Cells; assay: Growth inhibition, mean over tumor cell lines; assay type: cell-based; details: most cell lines examined
Experimental: as §2, with “PCNA-I1 and PCNA-I2 were either provided by the University of Cincinnati Drug Discovery Center (UC-DDC, Cincinnati, Ohio) or were purchased from Chembridge Co (San Diego, Calif.), ChemDiv (San Diego, Calif.), and/or Sigma-Aldrich (St Louis, Mo.).” left out
as §6

[12] = target: T1, PCNA (Homo sapiens, UniProt P12004); assay: PCNA trimer formation assay, PC-3 cell lysate; assay type: biochemical; details: PC-3 lysate, 1 μM or 10 μM, 3 H, SDS-PAGE; FIG. 9(A)
T1 construct: endogenous PCNA was knocked down with transfection of PCNA-specific siRNA; endogenous in cells; host or cells: PC-3
Experimental: The effect of PCNA-I1, PCNA-I2, PCNA-I3, PCNA-I4, PCNA-I6, PCNA-I7, PCNA-I8, PCNA-I9, and PCNA-I10 on PCNA trimer formation was investigated by SDS-PAGE and immunoblotting. Specifically, a trimer formation assay was performed on both PC-3 cell lysates and purified recombinant protein. The trimer formation assay was performed on purified recombinant protein to determine whether the effects of PCNA compounds on the stable trimer formation required the participation of other cellular proteins.
Purified His-PCNA (0.1 μg/reaction) and PC-3 cell lysates (50 μg/reaction) were incubated for 3 H at room temperature in a reaction buffer (40 mM Tris-HCl, pH 7.5, 0.2 mg/mL BSA, 10 mM MgCl2, and 10% glycerol) in the absence or presence of DMSO (0.1% vehicle control) or PCNA-I1, PCNA-I2, PCNA-I3, PCNA-I4, PCNA-I6, PCNA-I7, PCNA-I8, PCNA-I9, or PCNA-I10 (1 μM or 10 μM). The reaction was stopped by addition of the SDS-PAGE sample buffer without a reducing agent. The samples were resolved in SDS-PAGE without boiling and analyzed by immunoblotting using PCNA antibody.

[13] = test system: GFP-PCNA; assay: GFP-PCNA chromatin association, fluorescence microscopy; assay type: cell-based, Human; details: PC-3 transfected with pGFP-PCNA; 4 H, 0.5 μM PCNA-I1 or 2 μM PCNA-I2; FIG. 11
Experimental: Additionally, PC-3 cells were transfected for 24 H with pGFP-PCNA. The cells were then treated for 4 H with 0.5 μM of PCNA-I1 or 2 μM of PCNA-I2. The intact GFP-PCNA expressing cells were observed under a fluorescent microscope and recorded. After treatment with a buffer with 0.5% NP-40 buffer B, the cells were examined and recorded.

[14] = Homo sapiens, PC-3, 96 h, Table III, four days, mean of two experiments, read-out: IC50 Values of PCNA Inhibitors, PC-3 Cells
[15] = Homo sapiens, Table III, four days, mean of two experiments, read-out: IC50 Values of PCNA Inhibitors, LNCaP Cells

T1 sequence (P12004 whole entry): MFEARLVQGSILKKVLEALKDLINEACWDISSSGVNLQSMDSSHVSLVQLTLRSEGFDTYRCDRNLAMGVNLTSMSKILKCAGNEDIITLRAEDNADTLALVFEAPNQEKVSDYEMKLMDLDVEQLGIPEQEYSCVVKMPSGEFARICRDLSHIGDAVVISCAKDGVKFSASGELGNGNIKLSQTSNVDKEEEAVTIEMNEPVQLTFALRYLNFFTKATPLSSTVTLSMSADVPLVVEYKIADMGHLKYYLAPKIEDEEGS

N.N.[Cl][Pt][Cl] [cisplatin, reference compound]
Expression of retinoblastoma (Rb) and cyclin D1 ([1]; LNCaP and PC-3, 1 μM PCNA-I1 and/or 5 μM cisplatin, 12-24 H): moderately downregulated expression of cell cycle-regulating proteins
Phosphorylation of p53, single agent ([1]; LNCaP, 10 μM): induced
Expression of p21 protein ([1]; LNCaP, 10 μM PCNA-I1 and/or 10 μM cisplatin): enhanced expression of p21 protein at 6 H and 12 H
PARP cleavage, single agent ([1]; LNCaP, 10 μM alone): induced PARP cleavage
DNA double strand break (γH2AX induction), single agent ([1]; LNCaP, 10 μM alone, 6-18 H, FIG. 17(A)): induced moderate double strand break (DSB) of DNA
IC50 ([2]; MTT, four days, single agent, read-out: IC50 doses for cell growth inhibition, LNCaP, agent alone): 650 nM
IC50 ([2]; combined with 0.067 μM PCNA-I1, read-out: Cisplatin concentration giving 50% inhibition in combination, LNCaP): 300 nM
IC50 ([3]; MTT, four days, single agent, read-out: IC50 doses for cell growth inhibition, PC-3, agent alone): 450 nM
IC50 ([3]; combined with 0.08 μM PCNA-I1, read-out: Cisplatin concentration giving 50% inhibition in combination, PC-3): 300 nM

Cc1ccc2[nH]c(=O)c(/C=N/NC(=O)c3ccccc3)c(O)c2c1 [PCNA-I6]
IC50 [4, 14]: > 10000 nM
IC50 [5, 15]: > 10000 nM

O=C(N/N=C/c1ccc2ccccc2c1O)c1cccc(Cl)c1 [PCNA-I3]
IC50 [4, 14]: 440 nM
IC50 [5, 15]: 260 nM

O=C(N/N=C/c1ccc2ccccc2c1O)c1sc2ccccc2c1O [PCNA-I7]
IC50 [4, 14]: 3600 nM
IC50 [5, 15]: 2200 nM

C/C(=N\NC(=O)c1cccc(F)c1)c1ccc2ccccc2c1O [PCNA-I8]
IC50 [4, 14]: 1000 nM
IC50 [5, 15]: 680 nM

O=C(NNS(=O)(=O)c1ccc(Br)cc1)c1c(O)c2ccccc2[nH]c1=O [PCNA-I4]
IC50 [4, 14]: 3000 nM
IC50 [5, 15]: 680 nM

C/C(=N\NC(=O)c1ccccc1O)c1ccc2ccccc2c1O [PCNA-I9]
IC50 [4, 14]: 2200 nM
IC50 [5, 15]: 710 nM

O=C(NNC(=O)c1c(O)c2ccccc2[nH]c1=O)c1ccccc1[N+](=O)[O-] [PCNA-I10]
IC50 [4, 14]: > 10000 nM
IC50 [5, 15]: 2200 nM

concanavalin A [reference compound]
Stimulation of lymphocyte growth [6]: about 3.5 fold

O=C(N/N=C/c1c(O)ccc2ccccc12)c1ccn[nH]1 [PCNA-I2]
IC50 [7]: 1010 nM
IC50 ([4]; 96 h, Table II, Human tumor cells, treated four days, mean of five to seven experiments, read-out: IC50 Values, PC-3): 970 nM
IC50 [8]: 1190 nM
IC50 [9]: 1790 nM
IC50 ([5]; Table II, Human tumor cells, treated four days, mean of five to seven experiments, read-out: IC50 Values, LNCaP): 560 nM
IC50 [10]: 3750 nM
Potency relative to PCNA-I1 [11]: about three to five times less potent than PCNA-I1
Portion of PCNA in the trimer form [12]: significantly elevated
Level of chromatin-associated GFP-PCNA [13]: reduced the level of chromatin-associated GFP-PCNA
Total intensity of GFP-PCNA [13]: did not significantly alter the total intensity of GFP-PCNA

Source: patent US9895363B2, “Methods for modulating function of proliferating cell nuclear antigen (PCNA) and treating cancer with PCNA-targeting compounds” (University of Cincinnati, priority 2010, dated 2018)
